Our source for the IC50 and Kd values is ChEMBL document CHEMBL6182871, “Discovery of 4-((quinolin-8-ylthio)methyl)benzamide derivatives as a new class of SARS-CoV-2 nsp13 inhibitors” (Bioorg Med Chem Lett, 2025).

As usually defined, the IC50 is the point on the concentration scale where inhibition reaches its midpoint. Read a high IC50 as weaker potency in that assay. Usually Kd stands for the constant that tells how readily two partners part at equilibrium.

Bounds are passed on as bounds.

The first test addresses T1, Replicase polyprotein 1ab (Severe acute respiratory syndrome coronavirus 2, UniProt P0DTD1). Nature of the test: Inhibition of SARS-CoV-2 nsp13 by FRET assay.
For `O=C(N/N=C/c1cc([N+](=O)[O-])ccc1Cl)c1ccc(COc2cccc3ccccc23)cc1`, the IC50 was > 10000 nM. The same measure, in the same setting: with `O=C(N/N=C/c1cc([N+](=O)[O-])ccc1Cl)c1ccc(CSc2ccnc3ccccc23)cc1` the figure was 760 nM. On the same count and under the same terms, with `O=C(N/N=C/c1cc([N+](=O)[O-])ccc1Cl)c1ccc(CNc2cccc3ccccc23)cc1` the figure was > 10000 nM. On the same count and under the same terms, with `COc1cc(/C=N/NC(=O)c2ccc(CSc3cccc4cccnc34)cc2)ccc1O` the figure was 9190 nM; with `CSc1nnc(SCc2ccc(C(=O)N/N=C/c3cc([N+](=O)[O-])ccc3Cl)cc2)s1`, > 10000 nM; with `COc1ccc(/C=N/NC(=O)c2ccc(CSc3cccc4cccnc34)cc2)c(O)c1`, 5440 nM. The molecule `O=C(N/N=C/c1ccc(F)nc1)c1ccc(CSc2cccc3cccnc23)cc1` came in with an IC50 of 660 nM. On the same count and under the same terms, with `O=C(N/N=C/c1ccc(Cl)nc1)c1ccc(CSc2cccc3cccnc23)cc1` the figure was 5100 nM; with `COc1ccc(/C=N/NC(=O)c2ccc(CSc3cccc4cccnc34)cc2)cc1OC`, 4970 nM; with `O=C(N/N=C/c1cc([N+](=O)[O-])ccc1Cl)c1ccc(CSc2cccc3ccccc23)cc1`, > 10000 nM.

As for `O=C(N/N=C/c1cc2c(cc1[N+](=O)[O-])OCO2)c1ccc(CSc2cccc3cccnc23)cc1`, 430 nM corresponded to half-maximal inhibition (IC50). The same measure, in the same setting: with `O=C(N/N=C/c1cc([N+](=O)[O-])ccc1Cl)c1ccc(CSc2ccccc2Br)cc1` the figure was > 10000 nM; with `C/C(=N\NC(=O)c1ccc(CSc2cccc3cccnc23)cc1)c1ccc(F)nc1`, > 10000 nM.

Consider `Cn1cc(/C=N/NC(=O)c2ccc(CSc3cccc4cccnc34)cc2)cn1`, for which the midpoint of inhibition, the IC50, lay at 26800 nM. Still for that read-out and setting: with `O=C(N/N=C/c1cccc(F)c1O)c1ccc(CSc2cccc3cccnc23)cc1` the figure was 2980 nM.

Regarding `CC(C)NC(=O)c1ccc(/C=N/NC(=O)c2ccc(CSc3cccc4cccnc34)cc2)cc1`, the IC50 is 940 nM. Same read-out and setting: with `O=C(N/N=C/c1cc(F)c(F)cc1O)c1ccc(CSc2cccc3cccnc23)cc1` the figure was 2340 nM; with `O=C(N/N=C/c1ncccn1)c1ccc(CSc2cccc3cccnc23)cc1`, > 10000 nM; with `O=C(N/N=C/c1cc(O)c(Br)c(O)c1)c1ccc(CSc2cccc3cccnc23)cc1`, 2060 nM.

Regarding `O=C(N/N=C/c1ccc(Br)o1)c1ccc(CSc2cccc3cccnc23)cc1`, the IC50 was > 10000 nM. Same read-out and setting: with `O=C(N/N=C/c1cccc2ccncc12)c1ccc(CSc2cccc3cccnc23)cc1` the figure was 4330 nM; with `O=C(N/N=C/c1cc2ccncc2[nH]1)c1ccc(CSc2cccc3cccnc23)cc1`, > 10000 nM; with `O=C(N/N=C/c1ccc(F)cc1)c1ccc(CSc2cccc3cccnc23)cc1`, 2570 nM. The molecule `O=C(N/N=C/c1c(O)ccc2ccccc12)c1ccc(CSc2cccc3cccnc23)cc1` displayed an IC50 of 3920 nM. As for `O=C(N/N=C/c1c(Cl)ccnc1Cl)c1ccc(CSc2cccc3cccnc23)cc1`, inhibition was half-maximal at 480 nM (IC50).

Consider `COc1cc(F)ccc1/C=N/NC(=O)c1ccc(CSc2cccc3cccnc23)cc1`, for which the IC50 was found to be 2850 nM. The same measure, in the same setting: with `O=C(N/N=C/c1ccc(F)cc1O)c1ccc(CSc2cccc3cccnc23)cc1` the figure was 2700 nM. The same measure, in the same setting: with `O=C(N/N=C/c1cc([N+](=O)[O-])ccc1Cl)c1ccc(CSc2cccc3cccnc23)cc1` the figure was 280 nM; with `O=C(N/N=C/c1c(Cl)nc(Cl)nc1Cl)c1ccc(CSc2cccc3cccnc23)cc1`, 2940 nM. On the same count and under the same terms, with `COc1ccc(/C=N/NC(=O)c2ccc(CSc3cccc4cccnc34)cc2)cc1` the figure was 960 nM.

For a further test, the target named is T1, Replicase polyprotein 1ab. In words: Binding affinity to SARS-CoV-2 nsp13 assessed as dissociation constant by MST assay.
Turning to `Cn1cc(/C=N/NC(=O)c2ccc(CSc3cccc4cccnc34)cc2)cn1`, the Kd was determined as 46100 nM.
